The values that follow come from ChEMBL document CHEMBL5365551, “Fragment-Based NMR Screening of the BPTF PHD Finger Methyl Lysine Reader Leads to the First Small-Molecule Inhibitors” (ACS Med Chem Lett, 2023).

For assay [1], the target named is T1, Nucleosome-remodeling factor subunit BPTF (Homo sapiens, UniProt Q12830). As to the kind of experiment: Inhibition of biotinylated-H3K4me2 binding to N-terminal His9 tagged human BPTF isoform 2 PHD (2722 to 2781 residues) expressed in Escherichia coli BL21 Star (DE3) at 2 mM measured after 1 hr by Alphascreen assay relative to control. (Alpha assays give light when donor and acceptor beads are brought close together.)

The target in assay [2] is T1, Nucleosome-remodeling factor subunit BPTF. As to the kind of experiment: Binding affinity to N-terminal His9 tagged human BPTF isoform 2 PHD (2722 to 2781 residues) expressed in Escherichia coli BL21 Star (DE3) at 400 uM by SPR assay. (In general: In SPR one partner is held on a chip, and binding of the other changes the refractive index at the surface.)
For assay [3] the target is unchanged. As to the kind of experiment: Binding affinity to N-terminal His9 tagged human BPTF isoform 2 PHD (2722 to 2781 residues) expressed in Escherichia coli BL21 Star (DE3) assessed as reduction in proton resonance intensity at 100 uM by 1H CPMG NMR assay relative to control. Also on record: scale not given: the % may be the effect or the level left.
Assay [4] deals with Lysine-specific demethylase 5A (Homo sapiens) (UniProt P29375). As to the kind of experiment: Binding affinity to N-terminal His-tagged human KDM5A PHD3 (1486 to 1690 residues) expressed in Escherichia coli BL21 Star (DE3) assessed as reduction in proton resonance intensity at 100 uM by 1H CPMG NMR assay relative to control. Also on record: scale not given: the % may be the effect or the level left.
Sequence of Lysine-specific demethylase 5A (Homo sapiens) (P29375 whole entry, the tested form may be a part): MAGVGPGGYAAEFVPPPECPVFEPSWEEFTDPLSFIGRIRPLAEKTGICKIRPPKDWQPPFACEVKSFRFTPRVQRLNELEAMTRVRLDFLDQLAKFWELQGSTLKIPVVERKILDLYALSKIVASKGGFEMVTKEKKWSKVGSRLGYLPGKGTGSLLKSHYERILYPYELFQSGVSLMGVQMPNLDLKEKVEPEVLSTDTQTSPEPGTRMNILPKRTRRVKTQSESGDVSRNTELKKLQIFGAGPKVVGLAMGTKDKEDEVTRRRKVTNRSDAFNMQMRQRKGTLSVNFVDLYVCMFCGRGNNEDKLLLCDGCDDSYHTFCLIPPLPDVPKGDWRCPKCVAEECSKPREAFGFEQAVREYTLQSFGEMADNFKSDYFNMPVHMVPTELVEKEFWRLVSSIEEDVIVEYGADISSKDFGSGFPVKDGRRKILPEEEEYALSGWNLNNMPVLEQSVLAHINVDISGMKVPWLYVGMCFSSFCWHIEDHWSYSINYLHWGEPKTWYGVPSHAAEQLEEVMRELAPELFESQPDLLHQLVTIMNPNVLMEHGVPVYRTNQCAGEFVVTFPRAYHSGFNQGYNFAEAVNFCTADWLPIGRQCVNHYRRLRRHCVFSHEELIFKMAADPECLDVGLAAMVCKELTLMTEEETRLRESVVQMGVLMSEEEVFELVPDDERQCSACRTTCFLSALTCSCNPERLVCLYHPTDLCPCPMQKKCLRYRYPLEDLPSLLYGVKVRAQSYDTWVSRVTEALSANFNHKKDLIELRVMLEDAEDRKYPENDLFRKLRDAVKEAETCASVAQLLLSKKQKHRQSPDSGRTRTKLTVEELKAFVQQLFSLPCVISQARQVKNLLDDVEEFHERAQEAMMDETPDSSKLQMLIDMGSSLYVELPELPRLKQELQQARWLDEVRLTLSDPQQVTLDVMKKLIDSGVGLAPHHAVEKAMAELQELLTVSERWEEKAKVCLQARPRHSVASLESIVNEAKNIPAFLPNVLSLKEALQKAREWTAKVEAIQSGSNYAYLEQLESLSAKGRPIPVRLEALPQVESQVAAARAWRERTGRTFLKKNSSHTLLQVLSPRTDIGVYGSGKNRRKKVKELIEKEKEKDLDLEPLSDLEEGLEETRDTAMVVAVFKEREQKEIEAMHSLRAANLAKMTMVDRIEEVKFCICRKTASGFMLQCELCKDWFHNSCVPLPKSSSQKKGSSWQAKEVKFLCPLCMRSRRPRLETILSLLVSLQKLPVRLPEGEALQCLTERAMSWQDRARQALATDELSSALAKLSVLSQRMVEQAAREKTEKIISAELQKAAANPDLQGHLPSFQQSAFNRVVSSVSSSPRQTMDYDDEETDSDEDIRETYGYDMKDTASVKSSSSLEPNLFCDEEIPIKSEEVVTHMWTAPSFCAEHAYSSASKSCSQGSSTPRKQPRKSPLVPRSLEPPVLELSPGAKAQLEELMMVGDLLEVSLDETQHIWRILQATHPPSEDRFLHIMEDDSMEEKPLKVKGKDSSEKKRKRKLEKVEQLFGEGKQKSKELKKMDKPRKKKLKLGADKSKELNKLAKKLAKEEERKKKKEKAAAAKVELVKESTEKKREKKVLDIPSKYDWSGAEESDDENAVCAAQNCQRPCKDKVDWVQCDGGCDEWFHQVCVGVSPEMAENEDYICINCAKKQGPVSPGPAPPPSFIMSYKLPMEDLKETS

Assay [5] addresses T1, Nucleosome-remodeling factor subunit BPTF. As to the kind of experiment: Inhibition of biotinylated-H3K4me2 binding to N-terminal His9 tagged human BPTF isoform 2 PHD (2722 to 2781 residues) expressed in Escherichia coli BL21 Star (DE3) measured after 1 hr by Alphascreen assay.
Assay [6] has the same target. As to the kind of experiment: Binding affinity to N-terminal His9 tagged human BPTF isoform 2 PHD (2722 to 2781 residues) expressed in Escherichia coli BL21 Star (DE3) assessed as change in chemical shift perturbations at 1 mM by 1H,15N HSQC NMR spectroscopy.

The source made the active and inactive calls. No cut-off for these calls is given here.

Usually inhibition stands for the relative decrease from the control value, in per cent. Compound `COC1CN(c2nc3ccccc3s2)C1` registered an inhibition in assay [1] of 70%. Besides, the outcome in assay [2] was Active. Besides, the Activity was 30% in assay [3] and below 20% in assay [4].
Broadly, the IC50 is the midpoint of a concentration-inhibition curve. Take `Cc1ccc(Nc2ccc(Cl)nn2)cc1`: the IC50 result in assay [5] is reported as “Not Determined(Insoluble)”.
Take `c1ccc2nc(N3CCOCC3)ccc2c1`: the outcome in assay [2] was inactive. The Activity in assay [3] is 35%; in assay [4] it was below 20%.
Take `CC(=O)N1CCN(c2ccc(Nc3ccc(C)cc3)nn2)CC1`: the IC50 in assay [5] (read-out: IC50) worked out at 1200 µM.
`Nc1c2c(nc3c1CCC3)CCCC2` [IPIDACRINE]: the result in assay [2] was Active. For the same compound, the IC50 in assay [5] (read-out: IC50) was 590 µM. The figures for the Activity in assay [3] and in assay [4] were 50% and below 20%, respectively.
For the compound `Clc1ccc(N2CCNCC2)nn1`, the IC50 in assay [5] (read-out: IC50) amounted to 750 µM.
Turning to `CC(=O)N1CCc2c(sc(N)c2C#N)C1`, in assay [5] (read-out: IC50), the IC50 came out at 380 µM.
With `NCC1CCN(c2cccc(F)c2)C1` (centres undefined), the outcome in assay [2] and in assay [6] was Active. In addition, the IC50 in assay [5] (read-out: IC50) amounted to 380 µM. In addition, the Activity in assay [3] is 65%; in assay [4] it was below 20%.
Take `Fc1ccc(Nc2ccc(N3CCNCC3)nn2)cc1`: the IC50 in assay [5] (read-out: IC50) worked out at 25 µM. For the same compound, the result in assay [6] was inactive.
For the compound `Cc1ccc(Nc2ccc(N3CCNCC3)nn2)nc1`, in assay [5] (read-out: IC50), the IC50 turned out to be 30 µM.
For the compound `N#Cc1c(N)sc2c1CCCC2`, the outcome in assay [2] was inactive. For the same compound, in assay [5] (read-out: IC50), the IC50 worked out at 130 µM. The outcome in assay [6] was Active. Further, the Activity in assay [3] was 60%; in assay [4], above 20%.
For the compound `O=C(CC12CC3CC(CC(C3)C1)C2)N1CCCC1`, the result in assay [2] was inactive. In assay [5] (read-out: IC50), the IC50 worked out at 500 µM. Also, the Activity was 25% in assay [3] and above 20% in assay [4].
In assay [1], `CCS(=O)(=O)N1CCN(c2ccc(Nc3ccc(C)cc3)nn2)CC1` gave an inhibition of 78%.
For `Cc1ccc(NC(=O)NCC(C)N2CCCC2)cc1` (centres undefined), the values for the Activity in assay [3] and in assay [4] were 35% and below 20%, respectively.
In assay [1], `Cn1nc2c(c1CNC(=O)c1ccc3c(c1)OCO3)CCC2` returned an inhibition of 71%. Further, the result in assay [2] was inactive. For the same compound, the Activity in assay [3] is 25%; in assay [4], below 20%.
With `c1ccc(N2CC3CNCC3C2)cc1` (centres undefined), in assay [5] (read-out: IC50), the IC50 came to 150 µM.
`Cc1ccc(Nc2ccc(N3CCNCC3)nn2)cc1`: the result in assay [2] was Active. The IC50 in assay [5] (read-out: IC50) worked out at 300 µM. In addition, in assay [6], the result was inactive. Besides, the values for the Activity in assay [3] and in assay [4] were 50% and below 20%, respectively.
The compound `Nc1c2c(nc3c1CCC3)CCC2` had an inhibition in assay [1] of 60%.
In assay [1], `Cc1cccc(CSC2=NCCN2)c1` returned an inhibition of 83%. Moreover, the result in assay [2] was Active. The Activity in assay [3] was 50%; in assay [4], below 20%.
Turning to `c1ccc(Nc2ccc(N3CCNCC3)nn2)nc1`, the IC50 in assay [5] (read-out: IC50) is 20 µM.
As to `N#Cc1c(N)sc2c1CCCCC2`, the IC50 in assay [5] (read-out: IC50) was 63 µM.
As for `NCC1CC(=O)N(c2ccc(F)c(F)c2)C1` (centres undefined), the IC50 in assay [5] (read-out: IC50) is 220 µM.
In assay [1], `Nc1ccnc2c1CCCC2` showed an inhibition of 70%.
